Biological target: human TYK2 (JH2domain-pseudokinase) (Homo sapiens (Human), UniProt P29597)
Test: TYK2 JH2 Domain Binding Assay (KINOMEscan)
Settings: Table 4, JH2 binding assay; read-out: JH2 Kd

Sequence of human TYK2 (JH2domain-pseudokinase) (P29597 556-888): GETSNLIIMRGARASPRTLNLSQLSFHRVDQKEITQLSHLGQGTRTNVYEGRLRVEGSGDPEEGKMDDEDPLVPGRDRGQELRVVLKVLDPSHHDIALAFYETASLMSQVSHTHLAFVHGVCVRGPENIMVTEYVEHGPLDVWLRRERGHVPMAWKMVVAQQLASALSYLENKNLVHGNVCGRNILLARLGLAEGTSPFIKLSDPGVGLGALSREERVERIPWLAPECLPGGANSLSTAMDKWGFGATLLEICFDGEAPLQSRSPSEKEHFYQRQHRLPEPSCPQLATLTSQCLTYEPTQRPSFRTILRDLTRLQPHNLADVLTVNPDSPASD

Kd	Compound
0.1 to 0.5 nM	COCc1ccnc(Nc2cc(Nc3cccc(-c4ncn(C)n4)c3OC)c3c(=O)n(C)[nH]c3n2)c1 [Compound I-15, 4-((2-methoxy-3-(1-methyl-1H-1,2,4-triazol-3-yl)phenyl)amino)-6-((4-(methoxymethyl)pyridin-2-yl)amino)-2-methyl-1,2-dihydro-3H-pyrazolo[3,4-b]pyridin-3-one]
0.1 to 0.5 nM	COc1c(Nc2cc(Nc3ccc(C)cn3)nc3[nH]n(C)c(=O)c23)cccc1-c1ncn(C)n1 [Compound I-16, 4-((2-methoxy-3-(1-methyl-1H-1,2,4-triazol-3-yl)phenyl)amino)-2-methyl-6-((5-methylpyridin-2-yl)amino)-1H-pyrazolo[3,4-b]pyridin-3(2H)-one]
< 0.1 nM	COc1c(Nc2cc(Nc3ccccn3)nc3[nH]n(C)c(=O)c23)cccc1-c1ncn(C)n1 [Compound I-17, 4-((2-methoxy-3-(1-methyl-1H-1,2,4-triazol-3-yl)phenyl)amino)-2-methyl-6-(pyridin-2-ylamino)-1,2-dihydro-3H-pyrazolo[3,4-b]pyridin-3-one]
0.1 to 0.5 nM	COc1c(Nc2cc(Nc3cc(C)ccn3)nc3[nH]n(C)c(=O)c23)cccc1-c1ncn(C)n1 [Compound I-18, 4-((2-methoxy-3-(1-methyl-1H-1,2,4-triazol-3-yl)phenyl)amino)-2-methyl-6-((4-methylpyridin-2-yl)amino)-1,2-dihydro-3H-pyrazolo[3,4-b]pyridin-3-one]
1 to 10 nM	COc1c(Nc2cc(Nc3cc(CO)ccn3)nc3[nH]n(C)c(=O)c23)cccc1-c1ncn(C)n1 [Compound I-19, 6-((4-(hydroxymethyl)pyridin-2-yl)amino)-4-((2-methoxy-3-(1-methyl-1H-1,2,4-triazol-3-yl)phenyl)amino)-2-methyl-1,2-dihydro-3H-pyrazolo[3,4-b]pyridin-3-one]
0.1 to 0.5 nM	COc1c(Nc2cc(Nc3ccc(N4CCOCC4)cn3)nc3[nH]n(C)c(=O)c23)cccc1-c1ncn(C)n1 [Compound I-20, 4-((2-methoxy-3-(1-methyl-1H-1,2,4-triazol-3-yl)phenyl)amino)-2-methyl-6-((5-morpholinopyridin-2-yl)amino)-1,2-dihydro-3H-pyrazolo[3,4-b]pyridin-3-one]
0.1 to 0.5 nM	COc1c(Nc2cc(Nc3cc(C)c(F)cn3)nc3[nH]n(C)c(=O)c23)cccc1-c1ncn(C)n1 [Compound I-21, 6-((5-fluoro-4-methylpyridin-2-yl)amino)-4-((2-methoxy-3-(1-methyl-1H-1,2,4-triazol-3-yl)phenyl)amino)-2-methyl-1,2-dihydro-3H-pyrazolo[3,4-b]pyridin-3-one]
0.5 to 1 nM	COc1c(Nc2cc(Nc3cc(C)nc(C)n3)nc3[nH]n(C)c(=O)c23)cccc1-c1ncn(C)n1 [Compound I-22, 6-((2,6-dimethylpyrimidin-4-yl)amino)-4-((2-methoxy-3-(1-methyl-1H-1,2,4-triazol-3-yl)phenyl)amino)-2-methyl-1,2-dihydro-3H-pyrazolo[3,4-b]pyridin-3-one]
> 10 nM	COc1c(Nc2cc(Nc3ccc(C)nn3)nc3[nH]n(C)c(=O)c23)cccc1-c1ncn(C)n1 [Compound I-23, 4-((2-methoxy-3-(1-methyl-1H-1,2,4-triazol-3-yl)phenyl)amino)-2-methyl-6-((6-methylpyridazin-3-yl)amino)-1,2-dihydro-3H-pyrazolo[3,4-b]pyridin-3-one]
0.1 to 0.5 nM	COc1c(Nc2cc(Nc3ccc(N4CCCCC4)cn3)nc3[nH]n(C)c(=O)c23)cccc1-c1ncn(C)n1 [Compound I-24, 4-((2-methoxy-3-(1-methyl-1H-1,2,4-triazol-3-yl)phenyl)amino)-2-methyl-6-((5-(piperidin-1-yl)pyridin-2-yl)amino)-1,2-dihydro-3H-pyrazolo[3,4-b]pyridin-3-one]
0.1 to 0.5 nM	COc1c(Nc2cc(Nc3ccc(C#N)cn3)nc3[nH]n(C)c(=O)c23)cccc1-c1ncn(C)n1 [Compound I-25, 6-((4-((2-methoxy-3-(1-methyl-1H-1,2,4-triazol-3-yl)phenyl)amino)-2-methyl-3-oxo-2,3-dihydro-1H-pyrazolo[3,4-b]pyridin-6-yl)amino)nicotinonitrile]
> 10 nM	COc1c(Nc2cc(Cl)nc3[nH]n(C)c(=O)c23)cccc1-c1nnn(C)n1 [Compound I-27]
1 to 10 nM	COc1c(Nc2cc(Nc3cccc(C#N)n3)nc3[nH]n(C)c(=O)c23)cccc1-c1nnn(C)n1 [Compound I-28, 6-((4-((2-methoxy-3-(2-methyl-2H-tetrazol-5-yl)phenyl)amino)-2-methyl-3-oxo-2,3-dihydro-1H-pyrazolo[3,4-b]pyridin-6-yl)amino)picolinonitrile]
0.1 to 0.5 nM	COc1c(Nc2cc(Nc3cc(C#N)ncn3)nc3[nH]n(C)c(=O)c23)cccc1-c1nnn(C)n1 [Compound I-29, 6-((4-((2-methoxy-3-(2-methyl-2H-tetrazol-5-yl)phenyl)amino)-2-methyl-3-oxo-2,3-dihydro-1H-pyrazolo[3,4-b]pyridin-6-yl)amino)pyrimidine-4-carbonitrile]
> 10 nM	COc1c(Nc2cc(Nc3cccc(C#N)n3)nc3[nH]n(C)c(=O)c23)cccc1-c1ncn(C)n1 [Compound I-30, 6-((4-((2-methoxy-3-(1-methyl-1H-1,2,4-triazol-3-yl)phenyl)amino)-2-methyl-3-oxo-2,3-dihydro-1H-pyrazolo[3,4-b]pyridin-6-yl)amino)picolinonitrile]
< 0.1 nM	COc1c(Nc2cc(Nc3cc(C#N)ncn3)nc3[nH]n(C)c(=O)c23)cccc1-c1ncn(C)n1 [Compound I-31, 6-((4-((2-methoxy-3-(1-methyl-1H-1,2,4-triazol-3-yl)phenyl)amino)-2-methyl-3-oxo-2,3-dihydro-1H-pyrazolo[3,4-b]pyridin-6-yl)amino)pyrimidine-4-carbonitrile]
> 10 nM	COc1c(Nc2cc(Nc3cc(C#N)ccn3)nc3[nH]n(C)c(=O)c23)cccc1-c1nnn(C)n1 [Compound I-32, 2-((4-((2-methoxy-3-(2-methyl-2H-tetrazol-5-yl)phenyl)amino)-2-methyl-3-oxo-2,3-dihydro-1H-pyrazolo[3,4-b]pyridin-6-yl)amino)isonicotinonitrile]
> 10 nM	COc1c(C#N)cccc1Nc1cc(Nc2ccc(C)cn2)nc2[nH]n(C)c(=O)c12 [Compound I-34]
> 10 nM	COCc1ccnc(Nc2cc(Nc3cccc(C#N)c3OC)c3c(=O)n(C)[nH]c3n2)c1 [Compound I-35]
> 10 nM	COc1c(C#N)cccc1Nc1cc(Nc2ccc(N3CCOCC3)cn2)nc2[nH]n(C)c(=O)c12 [Compound I-36]
> 10 nM	COc1c(C#N)cccc1Nc1cc(Nc2cc(C)c(F)cn2)nc2[nH]n(C)c(=O)c12 [Compound I-37]
> 10 nM	COc1c(C#N)cccc1Nc1cc(Nc2ccc(C)nn2)nc2[nH]n(C)c(=O)c12 [Compound I-38]
> 10 nM	COc1c(C#N)cccc1Nc1cc(Nc2cc(C)nc(C)n2)nc2[nH]n(C)c(=O)c12 [Compound I-39]
> 10 nM	COc1c(C#N)cccc1Nc1cc(Nc2ccc(N3CCCCC3)cn2)nc2[nH]n(C)c(=O)c12 [Compound I-40]
> 10 nM	COc1c(C#N)cccc1Nc1cc(Nc2ccc(C#N)cn2)nc2[nH]n(C)c(=O)c12 [Compound I-41]
> 10 nM	COc1c(Nc2cc(Nc3cc(C)ccn3)nc3[nH]n(C)c(=O)c23)cccc1-c1nccs1 [Compound I-43]
1 to 10 nM	COc1cc(CO)ccc1Nc1cc(NC(=O)C2CC2)nc2[nH]n(C)c(=O)c12 [Compound I-44]
> 10 nM	COc1c(Nc2cc(Nc3cc(C)ccn3)nc3[nH]n(C)c(=O)c23)cccc1-c1ncc(C)s1 [Compound I-47, 4-((2-methoxy-3-(5-methylthiazol-2-yl)phenyl)amino)-2-methyl-6-((4-methylpyridin-2-yl)amino)-1,2-dihydro-3H-pyrazolo[3,4-b]pyridin-3-one]
0.5 to 1 nM	COc1c(F)cccc1Nc1cc(NC(=O)C2CC2)nc2[nH]n(C)c(=O)c12 [Compound I-48, N-(4-((3-fluoro-2-methoxyphenyl)amino)-2-methyl-3-oxo-2,3-dihydro-1H-pyrazolo[3,4-b]pyridin-6-yl)cyclopropanecarboxamide]
0.5 to 1 nM	COc1c(Cl)cccc1Nc1cc(NC(=O)C2CC2)nc2[nH]n(C)c(=O)c12 [Compound I-49, N-(4-((3-chloro-2-methoxyphenyl)amino)-2-methyl-3-oxo-2,3-dihydro-1H-pyrazolo[3,4-b]pyridin-6-yl)cyclopropanecarboxamide]

Compound	Kd
COc1c(C#N)cccc1Nc1cc(NC(=O)C2CC2)nc2[nH]n(C)c(=O)c12 [Compound I-33]	> 10 nM
COCc1ccc(Nc2cc(NC(=O)C3CC3)nc3[nH]n(C)c(=O)c23)c(OC)c1 [Compound I-45, N-(4-((2-methoxy-4-(methoxymethyl)phenyl)amino)-2-methyl-3-oxo-2,3-dihydro-1H-pyrazolo[3,4-b]pyridin-6-yl)cyclopropanecarboxamide]	1 to 10 nM
COc1c(Nc2cc(NC(=O)C3CC3)nc3[nH]n(C)c(=O)c23)cccc1-c1nc(C)nn1C [Compound I-46, N-(4-((3-(1,3-dimethyl-1H-1,2,4-triazol-5-yl)-2-methoxyphenyl)amino)-2-methyl-3-oxo-2,3-dihydro-1H-pyrazolo[3,4-b]pyridin-6-yl)cyclopropanecarboxamide]	0.5 to 1 nM
COc1cc(C2CC2)ccc1Nc1cc(NC(=O)C2CC2)nc2[nH]n(C)c(=O)c12 [Compound I-50, N-(4-((4-cyclopropyl-2-methoxyphenyl)amino)-2-methyl-3-oxo-2,3-dihydro-1H-pyrazolo[3,4-b]pyridin-6-yl)cyclopropanecarboxamide]	1 to 10 nM
COc1cc(C2CCC2)ccc1Nc1cc(NC(=O)C2CC2)nc2[nH]n(C)c(=O)c12 [Compound I-51]	> 10 nM
COc1c(Nc2cc(NC(=O)C3CC3)nc3[nH]n(C)c(=O)c23)cccc1-c1nnnn1C [Compound I-52]	1 to 10 nM
COc1c(Nc2cc(NC(=O)C3CC3)nc3[nH]n(C)c(=O)c23)cccc1-c1nc(C)n(C)n1 [Compound I-53]	0.1 to 0.5 nM
COc1c(Nc2cc(NC(=O)C3CC3)nc3[nH]n(C)c(=O)c23)cccc1-c1ncnn1C [Compound I-54, N-(4-((2-methoxy-3-(1-methyl-1H-1,2,4-triazol-5-yl)phenyl)amino)-2-methyl-3-oxo-2,3-dihydro-1H-pyrazolo[3,4-b]pyridin-6-yl)cyclopropanecarboxamide]	0.5 to 1 nM

Reference: US10323036B2 (Nimbus Lakshmi, Inc., priority 2016, dated 2019)
